Measurements reported in patent publication US7169787B2, “7-azaindoles, use thereof as phosphodiesterase 4 inhibitors and method for producing the same” (Elbion AG, priority 2000, dated 2007).
Where a name gives a salt, the structure may show the parent alone.

Assays:
[1] = test system: actively sensitized Brown Norway Rats; experiment: Inhibition of the late phase eosinophilia 48 hours after inhalative ovalbumin challenge; assay type: in vivo, rat; conditions: 2 h before allergen challenge, BAL 48 h after challenge
Description: The inhibition of pulmonary eosinophilia infiltration by the inventive substances is tested on male Brown Norway Rats (200–250 g), which had been actively sensitized against ovalbumin (OVA). The rats were sensitized by subcutaneous injections of a suspension of 10 μg OVA together with 20 mg of aluminum hydroxide as adjuvant in 0.5 mL of physiological salt solution per animal on days 1, 14 and 21. In addition, the animals at the same time received Bordetella pertussis vaccine dilution injected 0.25 mL i.p. per animal. On the 28th day of the experiment, the animals are placed individually in open 1 L Plexiglas boxes, which are connected to a head-nose exposure device. The animals are exposed to an aerosol of 1.0% ovalbumin suspension (allergen challenge). The ovalbumin aerosol is produced by a nebulizer (Bird Micronebulizer, Palm Springs Calif., USA), which is operated with compressed air (0.2 MPa). The exposure time is one hour, normal controls being nebulized also for one hour with an aerosol of 0.9% salt solution.
Forty-eight hours after the allergen challenge, there is a massive migration of eosinophilic granulocytes into the lungs of the animals. At this time, the animals are anesthetized with an excess of ethyl urethane (1.5 g/kg of body weight i.p.) and a bronchoalveolar lavage (BAL) with 3×4 mL of Hank's balance solution is carried out. The total cell count and the number of eosinophilic granulocytes of the pooled BAL liquid are subsequently determined with an automatic cell differentiation instrument (Bayer Diagnostics Technicon HIE). For each animal, the eosinophiles (EOS) in the BAL are calculated in millions/animal: EOS/μl×BAL recovery (mL)=EOS/animal.
For each test, 2 control groups were run (nebulization with physiological salt solution and nebulization with OVA solution).
The percentage inhibition of the eosinophilia of the experimental group, treated with substance, was calculated according to the following formula: {((OVAC−SC)−(OVAD−SC))/(OVAC−SC)}×100%=% inhibition (SC=vehicle-treated control group challenged with 0.9% salt solution; OVAC=vehicle-treated control group challenged with 1% ovalbumin suspension; OVAD=substance-treated experimental group challenged with 1% ovalbumin suspension)
The test substances are applied i.p. or orally as a suspension in 10% polyethylene glycol 300 and 0.5% 5-hydroxyethylcellulose for two hours before the allergen challenge. The control groups are treated with the vehicle in accordance with the application form of the test substance.

PDE 4 = experiment: Inhibition of phosphodiesterase 4 (enzyme preparation from human PMNL, [3H]-cAMP); assay type: biochemical; conditions: PDE 4 from human PMNL cytosol, 0.5 μM [3H]-cAMP
Description: The PDE 4 activity is determined in enzyme preparations from human polymorphonuclear […] (PMNL) and the PDE 2, 3 and 5 activity is determined with PDE from human thrombocytes. Human blood was anti-coagulated with citrate. By centrifuging at 700×g for 20 minutes at room temperature, the thrombocyte-rich plasma in the supernatant is separated from the erythrocytes and leukocytes. The thrombocytes are lysed by ultrasound and used in the PDE 3 and PDE 5 assays. For the determination of the PDE 2 activity, the cytosolic thrombocyte fraction is purified on an anionic exchange column by means of NaCl gradients and the PDE 2 peak is obtained for the assay. The PMNLs for the PDE 4 determination are isolated by a subsequent dextran sedimentation, followed by a gradient centrifugation with Ficoll-Paque. After the cells have been washed twice, the erythrocytes, still contained, are lysed within 6 minutes at 4° C. by the addition of 10 mL of hypotonic buffer (155 mM of NH4Cl, 10 mM of NaHCO3, 0.1 mM of EDTA, pH=7.4). The PMNLs, which are still intact, are washed twice with PBS and lysed with ultrasound. The supernatant of a one-hour centrifugation at 4° C. at 48,000×g contains the cytosolic fraction of the PDE 4 and is used for the PDE 4 measurements.
The phosphodiesterase activity is determined using the method described by Thompson et al. with some modifications (Thompson, W. J. and M. M. Appleman, Assay of cyclic nucleotide phosphodiesterase and resolution of multiple molecular forms of the enzyme, Adv. Cycl. Nucl. Res. 1979, 10, 69–92).
The reaction mixtures contain 50 mM of tris hydrochloride (pH 7.4), 5 mM of magnesium chloride, the inhibitors in various concentrations, the corresponding enzyme preparation as well as the further components necessary for determining the individual isoenzymes (see below). The reaction is started by the addition of the substrate, 0.5 μM of [^3H]-cAMP or [^3H]-cGMP (approximately 6000 CPM per test). The final volume is […]. Test substances are mixed as stock solutions in DMSO. The DMSO concentration in the reaction mixture is 1% v/v. The PDE activity is not affected by this concentration of DMSO. After the reaction is started by the addition of substrate, samples are incubated for 30 minutes at 37° C. The reaction is stopped by heating the test tubes for 2 minutes at 110° C. The samples remain for a further 10 minutes in ice. The addition of 30 μL of 5′-nucleotidase (1 mg/mL, from a poisonous snake suspension from Crotalus adamanteus) is followed by a 10-minutes incubation at 37° C. The samples are stopped on ice, in each case 400 μL of a mixture of Dowex, water and ethanol (1+1+1) is added, mixed well and incubated once again for 15 minutes on ice. The reaction vessels are centrifuged for 20 minutes at 3000×g. Aliquots of the supernatant (200 μL) are transferred directly to scintillation vessels. After the addition of 3 mL of scintillator, the samples are measured in the beta counter.
[^3H]-cAMP is used as substrate for the determination of the PDE 4, 3 and 2 activity and [^3H]-cGMP is used as substrate for the determination of the PDE 5 activity. The enzyme activities, which are nonspecific in each case, are determined in the presence of 100 μM of Rolipram for the determination of PDE 4 and in the presence of 100 μM of IBMX for the determination of the PDE 3 and 5 and subtracted from the test values. The incubation formulations of the PDE 3 assays contained 10 μM of Rolipram, in order to inhibit possible contaminations by PDE 4. The PDE 2 is tested with an SPA assay of the Amersham Company. The assay is carried out in the presence of the activator of the PDE 2 (5 μM of cGMP).

[2] = test system: release of TNFα from cells of nasal polyps; experiment: Inhibition of the release of TNFα from cells of nasal polyps (anti-IgE stimulated, ELISA); assay type: cell-based; conditions: Homo sapiens; concentration 1.0 μmole/L; anti-IgE stimulated nasal polyp cells
Description: The experimental arrangement corresponds essentially to the method described by Campbell, A. M. and J. Bousquet (Anti-allergic activity of H1-blockers, Int. Arch. Allergy Immunol., 1993, 101, 308–310). Nasal polyps form the starting material (material from patients, who had been subjected to a surgical treatment).
The tissue is washed with RPMI 1640 and subsequently digested with protease (2.0 mg/mL), collagenase (1.5 mg/mL), hyaluronidase (0.75 mg/mL), and DNAse (0.05 mg/mL) for two hours at 37° C. (1 g of tissue and 4 mL of RPMI 1640 with enzymes). The cells obtained, a mixture of epithelial cells, monocytes, macrophages, lymphocytes, fibroblasts and granulocytes, are filtered and washed by being centrifuged repeatedly in culture solution and sensitized passively by the addition of human IgE and the cell suspension is brought to a concentration of 2 million cells/mL in RPMI 1640 (supplemented by antibiotics, 10% fetal calf serum, 2 mM of glutamine and 25 mM of Hepes). This suspension is distributed on six-well cell culture plates (1 ml/well). The cells are pre-incubated for 30 minutes with the test substances in different final concentrations and subsequently stimulated to release TNFα by the addition of anti-IgE (7.2 μg/mL). The maximum release into the culture medium takes place after about 18 hours. During this period, the cells are incubated at 37° C. and 5% carbon dioxide. The culture medium (supernatant) is recovered by centrifuging (five minutes at 4000 rpm) and kept at −70° C. until the cytokin is determined. The TNFα in the supernatant is determined with so-called sandwich ELISAs (basic material Pharmingen), with which cytokin concentrations ranging from 30 to 1000 pg/mL can be determined.
Cells, not stimulated with anti IgE, hardly produce any TNFα; on the other hand, stimulated cells secrete large amounts of TNFα, which can be reduced, for example, by PDE 4 inhibitors as a function of the dose. From the percentage inhibition (TNFα release by the cells, stimulated with anti IgE=100%) of the substances tested at different concentrations, the IC50 (concentration at 50% inhibition) is calculated.

| Compound | Inhibition of Eosinophilia ([1]; 10 mg/kg i.p.) [%] | Inhibition of Eosinophilia ([1]; 10 mg/kg p.o.) [%] | IC50 (PDE 4) [µM] | melting point | inhibition at 1 µM [2] [%] |
| --- | --- | --- | --- | --- | --- |
| O=C(Nc1c(Cl)cncc1Cl)C(=O)c1cn(Cc2ccc(Cl)cc2)c2ncccc12 [Example 16] | 100 | 70 | 0.002 | 205 to 207 °C | 90 |
| O=C(Nc1c(Cl)cncc1Cl)C(=O)c1cn(Cc2ccc(O)cc2)c2ncccc12 [Example 23] |  |  | 0.001 | 140 to 142 °C |  |
| O=C(Nc1ccncc1)C(=O)c1cn(Cc2ccc(Cl)cc2)c2ncccc12 (as salt: HCl) [Example 15] |  |  |  | 280 to 283 °C (dec.) |  |
| O=C(Nc1c(Cl)cncc1Cl)C(=O)c1cn(CC2CC2)c2ncccc12 [Example 25] |  |  | 0.004 | 215 to 218 °C |  |
| O=C(Nc1ccncc1)C(=O)c1cn(Cc2ccc(F)cc2)c2ncccc12 [Example 13] |  |  | 0.058 |  |  |
| O=C(Nc1c(Cl)cccc1Cl)C(=O)c1cn(Cc2ccc(Cl)cc2)c2ncccc12 [Example 18] |  |  | 0.031 | 166 to 168 °C |  |
| C=C(C)Cn1cc(C(=O)C(=O)Nc2c(Cl)cncc2Cl)c2cccnc21 [Example 28] |  |  | 0.003 | 114 to 116 °C |  |
| O=C(Nc1ccncc1)C(=O)c1cn(Cc2ccc(Cl)cc2)c2ncccc12 [Example 15] |  |  | 0.031 |  |  |
| O=C(NCc1ccncc1)c1cn(CC2CC2)c2ncccc12 [Example 1, N-(4-Pyridylmethyl)-1-cyclopropylmethyl-7-azaindole-3-carboxylic Acid Amide] |  |  | 0.71 |  |  |
| COc1ccc(Cn2cc(C(=O)C(=O)Nc3c(Cl)cncc3Cl)c3cccnc32)cc1 [Example 17] | 75 | 32 | 0.008 | 165 to 167 °C | 91 |
| O=C(Nc1ccncc1)C(=O)c1cn(Cc2ccc(F)cc2)c2ncccc12 (as salt: HCl) [Example 13] |  |  |  | 275 to 278 °C (dec.) |  |
| CC(C)Cn1cc(C(=O)Nc2c(Cl)cncc2Cl)c2cccnc21 [Example 2] |  |  | 1.4 |  |  |
| COc1cccc(Cn2cc(C(=O)C(=O)Nc3c(Cl)cncc3Cl)c3cccnc32)c1 [Example 12, N-(3,5-Dichloropyridine-4-yl)-[1-(3-methoxybenzyl)-7-azaindole-3-yl]-glyoxylic Acid Amide] |  |  | 0.005 | 165 to 167 °C |  |
| Cc1noc(C)c1Cn1cc(C(=O)C(=O)Nc2c(Cl)cncc2Cl)c2cccnc21 [Example 32] |  |  | 0.113 | 196 to 198 °C |  |
| Cc1[nH]c(=O)[nH]c(=O)c1NC(=O)C(=O)c1cn(Cc2ccc(F)cc2)c2ncccc12 [Example 37] |  |  | 0.987 | 297 to 300 °C (dec.) |  |
| CCCCCCn1cc(C(=O)C(=O)Nc2c(Cl)cncc2Cl)c2cccnc21 [Example 26] |  |  | 0.021 | 165 to 167 °C |  |
| O=C(Nc1c(Cl)cncc1Cl)C(=O)c1cn(Cc2cccc(O)c2)c2ncccc12 [Example 24] |  |  | 0.003 | 241 to 244 °C |  |
